Measurements published in patent US20220281930A1, “COMPOSITIONS AND METHODS FOR THE TREATMENT OF PATHOLOGICAL PAIN AND ITCH” (DUKE UNIVERSITY, priority 2019, published 2022).

Experiments:
[1] = tested on: mouse KCC2 promoter constructs; assay: KCC2 promoter luciferase reporter assay in N2a cells; format: cell-based; details: KP 400 nM
Description: A fragment of the mouse KCC2 gene promoter (position −2052 […]) was amplified from genomic DNA prepared from cultured mouse primary glial cells. A 2.5 kb PCR fragment was cloned into the pGL4.17-Basic Vector (Promega) to generate the KCC2 promoter reporter construct. TCF and Kaiso binding sites were identified in this fragment. Using wild-type construct pGL4.17-KCC2 as a template, site-directed mutagenesis using Phusion DNA Polymerase enzyme (Thermo Fisher F549L) in conjunction with complementary primers bearing the specific mutation were used to mutate the Kaiso and TCF DNA-binding sites. PCR was followed by Dpn1 enzyme digestion to remove parental plasmid DNA. All constructs were verified by sequencing.
N2a cells were grown to 90% confluency in 24-well dishes in 0.4 mL of medium (DMEM, 2% Fetal Bovine Serum, 2 mM glutamine, 1% Non-essential amino acids, and 1% Penicillin/Streptomycin). Cells were transiently transfected using TurboFect reagent (Thermo Fisher R0531), with 500 ng of the pGL4.17-constructs plus 20 ng of the control Renilla plasmid (Promega, E2231) to normalize for transfection efficiency. Twenty-four hours after transfection, luminescence was measured using the Dual-Luciferase® Reporter Assay System (Promega) in a microplate luminometer (Veritas, Turner Biosystems). Mutant promoters were compared to WT, and the response of the respective promoter to KP (400 nM) was measured. Three independent transfection experiments were carried out and LUC assays were done in triplicates for each transfection. RLU is expressed as firefly luciferase activity relative to Renilla LUC activity.
Promoter expression constructs were built with rationally-targeted deletions to interrogate the effects of the Kaiso- and TCF-binding sites on activity of the KCC2 promoter and to determine if this activity was regulated by KP. For ease of transfection, key to this method, N2a neural cells were again used. The 5′ and 3′ delta-cat Kaiso binding sites functioned in repressive and enhancing manners, respectively (FIG. 11D).

KCC2 mRNA = KCC2 mRNA RT-qPCR in primary human cortical neurons; format: cell-based; details: KP 50, 100, 400 nM, 48 h
Description: The neuron-enriched cultures were established from fetal cortical specimens at 15-20 weeks of gestation. The protocols for tissue processing complied with all federal and institutional guidelines. The cultures were plated on PEI (polyethyleneimine solution) substrate and maintained in Neurobasal media supplemented with B27 as previously described (Pelsman et al., 2003, International journal of developmental neuroscience 21:117-124; Yeo et al., 2013, Proc Natl Acad Sci USA 110:4315-4320).
For RT-qPCR, the cell pellets were collected after treatments with vehicle (0.1% DMSO) or KP (50, 100, and 400 nM) for 48 h starting at day 6 in vitro.
Total RNA was isolated from cultured cell samples using Directzol RNA miniprep kit (ZymoResearch). The protocol includes DNAse digestion to exclude genomic DNA from preparations. Total RNA (1 μg) was reverse transcribed using oligo primers (dT) and SuperScriptIII first-strand synthesis kit (Invitrogen). Gene expression was assessed by quantitative real-time PCR using 2×SYBR Green Master Mix (Qiagen) and a three-step cycling protocol (anneal at 60° C./elongate at 72° C., denature at 95° C.). […] The amount of target messenger RNA (mRNA) in the experimental group relative to that in the control was determined from the resulting fluorescence and threshold values (Ct) using the ΔΔCt method. βIII-tubulin was used as housekeeping gene. […]

[2] = tested on: delta-cat binding to KCC2 promoter; assay: ChIP with anti-delta-cat antibody at KCC2 promoter; format: cell-based, rat; details: KP-treatment vs vehicle
Description: ChIP assay was carried out as described previously (Yeo et al., 2009, J Neurosci 29:14652-14662; Yeo et al., 2013, Proc Natl Acad Sci USA 110:4315-4320). Primary cortical neurons (0.7×10^6) were used for each ChIP experiment. Cells were crosslinked with 1% formaldehyde for 30 min, washed twice with cold PBS, resuspended in lysis buffer [1% SDS, 10 mm EDTA, and 50 mm Tris-HCl, pH 8.0, with protease inhibitor cocktail (Roche)], and sonicated for 15 s pulses. The lysates were clarified by centrifugation at 10,000 rpm for 10 min at 4° C. in a microcentrifuge. One-tenth of the total lysate was used as input control of genomic DNA. Supernatants were collected and diluted in buffer (1% Triton X-100, 2 mm EDTA, 150 mm NaCl, 20 mm Tris-HCl, pH 8.0, and protease inhibitor cocktail) followed by immunoclearing with 1 mg of salmon sperm DNA, 10 ml of rabbit IgG, and 20 ml of protein A/G-Sepharose (Santa Cruz Biotechnology) for 1 h at 4° C. Immunoprecipitation was performed overnight at 4° C. with 2 mg of each specific antibody. Precipitates were washed sequentially for 10 min each in TSE1 buffer (0.1% SDS, 1% Triton X-100, 2 mm EDTA, 150 mm NaCl, and 20 mm Tris-HCl, pH 8.0), TSE2 (TSE1 with 500 mm NaCl), and TSE3 (0.25 m LiCl, 1% NP-40, 1% deoxycholate, 1 mm EDTA, and 10 mm Tris-HCl, pH 8.0). Precipitates were then washed twice with 10 mm Tris/0.1 mm EDTA, pH 7.8 and extracted with 1% SDS containing 0.1 m NaHCO3. Eluates were pooled and heated at 65° C. for 4 h to reverse formaldehyde crosslinking. DNA fragments were purified with Qiagen Qiaquick spin kit. For ChIP PCR, 1 l of a 25 l DNA extraction was used.
Consequently, catenins effects on the KCC2 promoter was explored.

O=C1Cc2c([nH]c3ccc(Br)cc23)-c2ccccc2N1 [kenpaullone, 9-bromo-7,12-dihydro-indolo [3,2-d] [1]benzazepin-6(5H)-one]
KCC2 promoter LUC activity ([1]; Kaiso1 deletion (ΔK1) construct): significantly enhanced further | KCC2 promoter LUC activity ([1]; TCF deletion constructs of FIG. 11C): did not increase | KCC2 promoter LUC activity ([1]; deletion of both Kaiso sites): non-responsiveness | KCC2 promoter LUC activity ([1]; triple-deletion of both Kaiso sites and TCF site): completely non-responsive | KCC2 mRNA (KCC2 mRNA): increases in a dose-dependent manner | binding of delta-cat to Kaiso1 site [2]: significantly reduced binding | binding of delta-cat to Kaiso2 site [2]: significantly increases binding | binding of delta-cat to TCF site [2]: non-significant increase
